Experiment in all cases: inhibition of tumour cell growth, NCI panel, 48 h
Assay [1] relates to NCI-H460.
For assay [2], the system named is MCF7.
In assay [3] the test system is SF-268.
The subject of assay [4] is SNB-19.
Assay [5] deals with HOP-92.
For assay [6], the system named is CAKI-1.
The subject of assay [7] is RPMI-8226.
Assay [8] relates to SR.
Assay [9] concerns U-251.
The subject of assay [10] is HCC 2998.
Assay [11] has as its system IGROV-1.
Assay [12] concerns OVCAR-5.
Assay [13] relates to HL-60.
The test system of assay [14] is HT-29.
Assay [15] relates to SF-295.
For assay [16], the system named is HCT-15.
For assay [17], the system named is SW-620.
Assay [18] deals with PC-3.
Assay [19] relates to MDA-MB-231.

SMILES strings stand for the structures.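 Step 1: Grow cells in 96-well plates. Step 2: Expose to compound for 48 hours at 5 concentrations. Step 3: Interpolate endpoints linearly; if unreached, use highest concentration. At the GI50, growth is halved.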 Active and inactive are the calls of the source. Rule as the data show it: active = GI50 up to about 1.1 µM and inactive = higher.

As to `O=C1c2ccccc2-c2nc3ccncc3n21`, the GI50 in assay [1], in assay [2], in assay [3], in assay [4], in assay [5] and in assay [6] was > 100 µM (inactive) each time. Moreover, the GI50 in assay [7], in assay [8], in [9], in assay [10], in assay [11] and in assay [12] was > 100 µM (inactive) in each case. Besides, the GI50 is > 100 µM (inactive) in [13]; > 100 µM (inactive) in assay [14]; > 100 µM (inactive) in [15]; more than 100 µM in [16]; > 100 µM (inactive) in assay [17]; > 100 µM (inactive) in assay [18].
Consider `CC1=C(C)C(=O)c2c(cc3ccc4ccccc4n23)C1=O`, for which the GI50 in assay [1], in [3], in assay [4], in [7], in [8] and in [9] was > 100 µM (inactive) each time. In addition, the GI50 in assay [10], in assay [11], in [12], in [13], in [14] and in assay [15] was > 100 µM (inactive) each time. The GI50 in assay [16] was more than 100 µM; in assay [17], > 100 µM (inactive).
For `O=C(c1ccc(-c2ccccc2)cc1)N(Cc1cccnc1)C(=S)N(Cc1cccnc1)C(=O)c1ccc(-c2ccccc2)cc1`, the GI50 is > 100 µM (inactive) in assay [1]; 41.6 µM (inactive) in [2]; > 100 µM (inactive) in assay [3]; > 100 µM (inactive) in [4]; 8.95 µM (inactive) in assay [5]; 27.1 µM (inactive) in assay [6]. For the same compound, the GI50 in assay [7] is 3.56 µM (inactive); in assay [8], 0.241 µM (active); in assay [9], > 100 µM (inactive); in [10], > 100 µM (inactive); in assay [12], > 100 µM (inactive); in assay [13], 24.5 µM (inactive). Moreover, the GI50 was 48.5 µM (inactive) in assay [14]; > 100 µM (inactive) in assay [15]; 87.3 µM in assay [16]; > 100 µM (inactive) in assay [17]; > 100 µM (inactive) in [18]; > 100 µM (inactive) in [19].
`COc1ccc2c(CCNC(C)=O)c(C(C)=O)[nH]c2c1`: the GI50 in [1] was > 100 µM (inactive); in [3] it was 48.4 µM (inactive); in assay [4], > 100 µM (inactive); in [6], 70.5 µM (inactive); in assay [7], > 100 µM (inactive); in [8] it was > 100 µM (inactive). In addition, the GI50 in [9], in assay [10], in [11], in [12], in assay [13] and in [14] was > 100 µM (inactive) each time. Further, the GI50 in [15] was > 100 µM (inactive); in assay [16] it was more than 100 µM; in assay [17], > 100 µM (inactive).
In the case of `CSc1nc2[nH]c(=O)c(C)nc2c(=O)[nH]1`, the GI50 in [1], in assay [3], in assay [4], in assay [5], in assay [6] and in assay [7] was > 100 µM (inactive) throughout. Besides, the GI50 in [8], in [9], in [10], in assay [11], in assay [12] and in [13] was > 100 µM (inactive) each time. The GI50 is > 100 µM (inactive) in assay [14], > 100 µM (inactive) in assay [15], more than 100 µM in [16] and > 100 µM (inactive) in assay [17].
On to `CN(C)CCNC(=O)c1cccc2ccc(-c3ccc(-c4ccccc4)cc3)nc12`, for which the GI50 in assay [1] was 1.61 µM (inactive); in assay [3], 3.37 µM (inactive); in assay [4] it was 11.4 µM (inactive); in assay [5] it was 3.02 µM (inactive); in assay [6], 5.13 µM (inactive); in assay [8], 2.3 µM (inactive). The GI50 is 2.14 µM (inactive) in assay [9]; 1.83 µM (inactive) in [10]; 12.6 µM (inactive) in assay [11]; 3.92 µM (inactive) in assay [12]; 1.93 µM (inactive) in assay [13]; 1.75 µM (inactive) in assay [14]. Further, the GI50 in assay [15] is 2.21 µM (inactive); in [16], 1.98 µM; in assay [17], 2.11 µM (inactive).
As to `O=C(/C=C/c1ccc(OCCCOc2ccc(/C=C/C(=O)c3ccccc3)cc2)cc1)c1ccccc1`, the GI50 in assay [1] is > 100 µM (inactive); in assay [3], > 100 µM (inactive); in [4], 63.2 µM (inactive); in assay [7] it was 50.7 µM (inactive); in [8], > 100 µM (inactive); in assay [9], > 10 µM (inactive). The GI50 was > 100 µM (inactive) in [10]; > 100 µM (inactive) in assay [11]; > 100 µM (inactive) in assay [13]; > 100 µM (inactive) in [14]; > 100 µM (inactive) in assay [15]; more than 100 µM in assay [16]. For the same compound, the GI50 in assay [17] is > 100 µM (inactive).
Take `COC(=O)NC(=O)c1cn(CCCOC(=O)CCCCCCCCC(=O)OCCCn2cc(C(=O)NC(=O)OC)c(=O)[nH]c2=O)c(=O)[nH]c1=O`: the GI50 in assay [1] was > 100 µM (inactive); in assay [3], 31.3 µM (inactive); in assay [4], 42.4 µM (inactive); in assay [5] it was 36.7 µM (inactive); in [6], 28.8 µM (inactive); in [7], > 100 µM (inactive). Moreover, the GI50 is > 100 µM (inactive) in [8]; > 100 µM (inactive) in assay [10]; 85.1 µM (inactive) in assay [11]; > 100 µM (inactive) in assay [12]; > 100 µM (inactive) in assay [13]; > 100 µM (inactive) in assay [14]. The GI50 in [15] was 47.3 µM (inactive); in assay [16], more than 100 µM; in assay [17] it was > 100 µM (inactive).
Consider `COC(=O)C1C(=O)O[C@@H](c2ccc(OC)cc2)C1C(=O)OC` (stereo not given in full), for which the GI50 in assay [3], in [4], in assay [5], in assay [6], in [7] and in [8] was > 100 µM (inactive) throughout. The GI50 in [9], in assay [10], in assay [11], in [12], in [14] and in assay [15] was > 100 µM (inactive) throughout. For the same compound, in assay [17], the GI50 was > 100 µM (inactive).
Regarding `COC(=O)C(=O)CC(=O)CCn1ncc(Cl)c(Cl)c1=O`, the GI50 is 19.7 µM (inactive) in [1]; 11.3 µM (inactive) in assay [3]; 18.5 µM (inactive) in assay [4]; 15.7 µM (inactive) in assay [5]; 5.78 µM (inactive) in [6]; 12.8 µM (inactive) in assay [7]. Further, the GI50 is 2.84 µM (inactive) in assay [8]; 9.23 µM (inactive) in [9]; 7.45 µM (inactive) in [10]; 17.1 µM (inactive) in assay [11]; 19.2 µM (inactive) in assay [12]; 3.94 µM (inactive) in assay [13]. Besides, the GI50 in assay [14] was 11.5 µM (inactive); in assay [15] it was 13.7 µM (inactive); in [16], 4.14 µM; in [17], 8.36 µM (inactive).
Take `CCN(CC)c1ccc(/N=C2/C=CC(=O)c3ncccc32)c(C)c1`: the GI50 was 6.43 µM (inactive) in assay [1]; 8.32 µM (inactive) in assay [3]; 16.1 µM (inactive) in [4]; 6.75 µM (inactive) in [5]; 11 µM (inactive) in assay [6]; 2.93 µM (inactive) in assay [7]. Besides, the GI50 in assay [8] was 2.65 µM (inactive); in assay [9], 6.92 µM (inactive); in [10] it was 11.7 µM (inactive); in assay [11] it was 6.65 µM (inactive); in assay [12] it was 12 µM (inactive); in assay [13] it was 2.19 µM (inactive). The GI50 in assay [14] is 15.1 µM (inactive); in [15] it was 10.7 µM (inactive); in assay [16], 3.08 µM; in assay [17], 2.53 µM (inactive).
As to `CCN(CC)CCNC(=O)c1ccccc1Nc1c(Cl)cccc1Cl`, the GI50 in [1] is 4.39 µM (inactive); in [3], 18.2 µM (inactive); in assay [4], 16.4 µM (inactive); in assay [7], 12.2 µM (inactive); in assay [8], 13 µM (inactive); in assay [9], 6.56 µM (inactive). Also, the GI50 in assay [10] was 6.82 µM (inactive); in assay [11] it was 19.1 µM (inactive); in [12] it was 7.55 µM (inactive); in assay [13], 7.41 µM (inactive); in assay [14] it was 6.15 µM (inactive); in assay [16], 12.6 µM. Besides, the GI50 in assay [17] was 15.3 µM (inactive).
For `CN(CCCNC(=O)c1cn(C)c2c1Cc1ccccc1-2)CCCNC(=O)c1cn(C)c2c1Cc1ccccc1-2`, the GI50 is 8.89 µM (inactive) in assay [1]; 10.2 µM (inactive) in [2]; 5.14 µM (inactive) in [3]; 11.4 µM (inactive) in [4]; 2.13 µM (inactive) in [5]; 14.9 µM (inactive) in assay [6]. The GI50 in assay [7] is 21.3 µM (inactive); in [8], 1.45 µM (inactive); in assay [9], 7.43 µM (inactive); in assay [11] it was 6.24 µM (inactive); in [12] it was 15.6 µM (inactive); in [13], 13.3 µM (inactive). Moreover, the GI50 was 2.32 µM (inactive) in assay [14]; 12.3 µM (inactive) in assay [15]; 11.2 µM in assay [16]; 3.66 µM (inactive) in assay [17]; 10.8 µM (inactive) in [18]; 13.6 µM (inactive) in assay [19].

For the origin of these results see ChEMBL document CHEMBL1201862, “PubChem BioAssay data set” (2004).
